In ChEMBL document CHEMBL1201862, “PubChem BioAssay data set” (2004):
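Growth conditions: 96-well plates. Treatment: test compound, 48 hours, 5 concentrations. Analysis: linear interpolation between bracketing concentrations; unreached endpoints set to highest concentration. Abbreviation: GI50, concentration required for 50% inhibition of growth.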 Active and inactive are the calls of the source. No stated cut-off is given here; in the data, active = GI50 up to about 1.1 µM and inactive = higher.

Columns and labels:
Assay in all cases: inhibition of tumour cell growth, NCI panel, 48 h
[1] = tested on: HOP-92
[2] = tested on: M14
[3] = tested on: K562
[4] = tested on: MCF7
[5] = tested on: SK-MEL-2
[6] = tested on: SK-OV-3
[7] = tested on: MDA-N
[8] = tested on: NCI-H460
[9] = tested on: T47D
[10] = tested on: OVCAR-8
[11] = tested on: MDA-MB-231
[12] = tested on: CCRF-CEM
[13] = tested on: SW-620
[14] = tested on: OVCAR-5
[15] = tested on: EKVX
[16] = tested on: NCI-H23

Row | SMILES | GI50 [1] | GI50 [2] | GI50 [3] | GI50 [4] | GI50 [5] | GI50 [6] | GI50 [7] | GI50 [8] | GI50 [9] | GI50 [10] | GI50 [11] | GI50 [12] | GI50 [13] | GI50 [14] | GI50 [15] | GI50 [16]
1 | Nc1nc(O)c(N)c(NCCOCP(=O)(O)O)n1 | > 100 µM (inactive) | > 100 µM (inactive) | > 100 µM (inactive) | > 100 µM (inactive) | > 100 µM (inactive) | > 100 µM (inactive) | > 100 µM (inactive) | > 100 µM (inactive) | > 100 µM (inactive) | > 100 µM (inactive) | > 100 µM (inactive) | > 100 µM (inactive) | > 100 µM (inactive) | > 100 µM (inactive) | > 100 µM (inactive) | > 57.8 µM (inactive)
2 | COc1cccc2c3cccc(OC)c3c3[nH]cnc3c12 | 6.04 µM (inactive) | 1.71 µM (inactive) | 2.08 µM (inactive) | 1.58 µM (inactive) | 20.1 µM (inactive) | 18.7 µM (inactive) | 1.85 µM (inactive) | 1.72 µM (inactive) | 6.24 µM (inactive) | 1.94 µM (inactive) | 1.87 µM (inactive) | 0.923 µM (active) | 1.73 µM (inactive) | 5.37 µM (inactive) | 14.7 µM (inactive) | 1.84 µM (inactive)
3 | C=C1[C@H](OCC(C)C)[C@@H](OC(=O)C(C)CC)[C@@H](O)C(C)(C)/C=C/[C@H](C)C(=O)[C@@]2(O)C[C@H](C)[C@H](O)[C@@H]2[C@H]1OC(=O)C(C)CC (some centres not stated) | 1.79 µM (inactive) | 2.15 µM (inactive) | 0.991 µM (active) | 5.92 µM (inactive) | 4.99 µM (inactive) | 19.7 µM (inactive) | 1.26 µM (inactive) | 0.463 µM (active) | > 13.1 µM (inactive) | 9.98 µM (inactive) | 4.01 µM (inactive) | 0.564 µM (active) | 5.24 µM (inactive) | 6.37 µM (inactive) | 8.83 µM (inactive) | 5.2 µM (inactive)
4 | COC(=O)c1sc2c(=O)c(C(=O)OC)c(C(=O)OC)sc2c(=O)c1C(=O)OC | > 100 µM (inactive) | > 100 µM (inactive) | 43.2 µM (inactive) | > 100 µM (inactive) | > 85.9 µM (inactive) | > 100 µM (inactive) | > 100 µM (inactive) | > 100 µM (inactive) | > 100 µM (inactive) | > 100 µM (inactive) | > 100 µM (inactive) |  | > 100 µM (inactive) | > 100 µM (inactive) | > 100 µM (inactive) | > 100 µM (inactive)
5 | Cc1cn(CC2=NCCCN2)c(=O)[nH]c1=O | > 100 µM (inactive) | > 100 µM (inactive) | > 100 µM (inactive) | > 100 µM (inactive) | > 100 µM (inactive) | > 100 µM (inactive) | > 100 µM (inactive) | > 100 µM (inactive) | > 100 µM (inactive) | > 100 µM (inactive) | > 100 µM (inactive) | > 100 µM (inactive) | > 100 µM (inactive) | > 100 µM (inactive) | > 100 µM (inactive) | > 100 µM (inactive)
6 | O=C(NCc1cccnc1)NCc1cccnc1 | > 100 µM (inactive) | > 100 µM (inactive) | > 100 µM (inactive) | > 100 µM (inactive) | > 100 µM (inactive) | > 100 µM (inactive) | > 100 µM (inactive) | > 100 µM (inactive) | > 100 µM (inactive) | > 100 µM (inactive) | > 100 µM (inactive) |  | > 100 µM (inactive) | > 100 µM (inactive) | > 100 µM (inactive) | > 100 µM (inactive)
7 | Nc1ncn2c(n1)nc1ccccc12 | 37.2 µM (inactive) | > 100 µM (inactive) | > 100 µM (inactive) | > 100 µM (inactive) | > 100 µM (inactive) | > 100 µM (inactive) | > 100 µM (inactive) | > 100 µM (inactive) | > 100 µM (inactive) | > 100 µM (inactive) | > 100 µM (inactive) | > 100 µM (inactive) | > 100 µM (inactive) | > 100 µM (inactive) | 54.8 µM (inactive) | > 100 µM (inactive)
8 | CC1(C)C(O)c2ccccc2OC1N1CCN(C2Oc3ccccc3C(O)C2(C)C)CC1 (configuration not stated) | > 100 µM (inactive) | > 100 µM (inactive) | > 100 µM (inactive) | > 100 µM (inactive) |  | > 100 µM (inactive) | > 100 µM (inactive) | > 100 µM (inactive) | > 100 µM (inactive) | > 100 µM (inactive) | > 100 µM (inactive) | > 100 µM (inactive) | > 100 µM (inactive) | > 100 µM (inactive) | > 100 µM (inactive) | > 100 µM (inactive)
9 | N#Cc1c(Cl)nc2ccccc2c1N=[N+]=[N-] | 1.7 µM (inactive) | 2.84 µM (inactive) | 0.705 µM (active) | 4.56 µM (inactive) | 1.91 µM (inactive) | 15.5 µM (inactive) | 13.3 µM (inactive) | 5.19 µM (inactive) | 2.47 µM (inactive) | 3.02 µM (inactive) | 1.89 µM (inactive) | 1.41 µM (inactive) | 1.73 µM (inactive) | 6.61 µM (inactive) | 2.25 µM (inactive) | 2.52 µM (inactive)
10 | Cn1c(N)c(Cc2ccc(Cl)cc2)c(=O)[nH]c1=O | 89.7 µM (inactive) | > 100 µM (inactive) | > 100 µM (inactive) | > 100 µM (inactive) | > 100 µM (inactive) | > 100 µM (inactive) | > 100 µM (inactive) |  | > 100 µM (inactive) | > 100 µM (inactive) | > 100 µM (inactive) | > 100 µM (inactive) | > 100 µM (inactive) | > 100 µM (inactive) | > 100 µM (inactive) | > 100 µM (inactive)
11 | COC(=O)[C@H](Cc1c[nH]c2ccccc12)NC(=O)c1ccc(CNC(=O)/C(C)=C/c2ccccc2)cc1 | 16 µM (inactive) | 15.9 µM (inactive) | > 100 µM (inactive) | 29.2 µM (inactive) | 12.4 µM (inactive) | > 100 µM (inactive) | 19.8 µM (inactive) | 27.9 µM (inactive) | 3.7 µM (inactive) | 66.7 µM (inactive) | 17.8 µM (inactive) | 41 µM (inactive) | > 100 µM (inactive) | > 100 µM (inactive) | 57.3 µM (inactive) | 25.7 µM (inactive)
12 | Cc1cc2c(cc1O)CC[C@@H]1[C@@H]2CC[C@]2(C)[C@@H](O)CC[C@@H]12 | 14.9 µM (inactive) | 7.24 µM (inactive) | 2.58 µM (inactive) | 8.85 µM (inactive) | 5.48 µM (inactive) | 11.5 µM (inactive) | 1.9 µM (inactive) | 8.65 µM (inactive) | 19.3 µM (inactive) | 19.1 µM (inactive) | 9.38 µM (inactive) | 4.32 µM (inactive) | 4.28 µM (inactive) | 21.2 µM (inactive) |  | 13.6 µM (inactive)
13 | CCN(CC)CC1CCCCN1CC(=O)N1c2ccccc2C(=O)Nc2cccnc21 (configuration not stated) [OTENZEPAD] | > 100 µM (inactive) | 68.9 µM (inactive) |  | 27.9 µM (inactive) | > 100 µM (inactive) | > 100 µM (inactive) | 66.2 µM (inactive) | 59.3 µM (inactive) | > 100 µM (inactive) | 45.4 µM (inactive) | 32.1 µM (inactive) | 19 µM (inactive) | 36.7 µM (inactive) | 83.2 µM (inactive) | > 100 µM (inactive) | 52 µM (inactive)
